Assay results reported in US12258328B2, “6-membered heteroaryl-containing aminopyridine compounds as EGFR inhibitors” (YUHAN CORPORATION, priority 2021, dated 2025).
Where two headings read alike, the source gives them in different places.

How the values were obtained:
EGFR L858R/T790M/C797S = EGFR L858R/T790M/C797S (Homo sapiens, UniProt P00533, C797S/L858R/T790M); test: Biochemical EGFR kinase assay (Lance Ultra TR-FRET), triple mutant L858R/T790M/C797S
Method in brief: (§1)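 In this biochemical assay, phosphorylation after a one-hour room-temperature reaction was detected with europium-labelled anti-phosphopeptide antibody at 2 nM final concentration.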

EGFR wildtype = EGFR wildtype (Homo sapiens, UniProt P00533); test: Biochemical EGFR kinase assay (Lance Ultra TR-FRET), wildtype
Method in brief: as §1

EGFR L858R/C797S = EGFR L858R/C797S (Homo sapiens, UniProt P00533, C797S/L858R); test: Biochemical EGFR kinase assay (Lance Ultra TR-FRET), double mutant L858R/C797S
Method in brief: as §1

EGFR del19/C797S = EGFR del19/C797S (Homo sapiens, UniProt P00533, C797S/DEL746-750); test: Biochemical EGFR kinase assay (Lance Ultra TR-FRET), double mutant del19/C797S
Method in brief: as §1

EGFR del19/T790M/C797S = EGFR del19/T790M/C797S (Homo sapiens, UniProt P00533, C797S/DEL746-750/T790M); test: Biochemical EGFR kinase assay (Lance Ultra TR-FRET), triple mutant del19/T790M/C797S
Method in brief: as §1

[1] = IC50 L858R/T790M/C797S (nM) 100 μM ATP, 100 μM ATP
[2] = IC50 WT (nM) 100 μM ATP, 100 μM ATP
[3] = IC50 L858R/C797S (nM) 100 μM ATP, 100 μM ATP
[4] = IC50 del19/C797S (nM) 100 μM ATP, 100 μM ATP
[5] = IC50 del19/T790M/C797S (nM) 100 μM ATP, 100 μM ATP
[6] = Km ATP, read-out: IC50 L858R/T790M/C797S (nM) Km ATP
[7] = Km ATP, read-out: IC50 WT (nM) Km ATP
[8] = Km ATP, read-out: IC50 L858R/C797S (nM) Km ATP
[9] = Km ATP, read-out: IC50 del19/C797S (nM) Km ATP
[10] = Km ATP, read-out: IC50 del19/T790M/C797S (nM) Km ATP
[11] = ATP at Km, read-out: IC50 L858R/T790M/C797S, Km ATP
[12] = IC50 L858R/T790M/C797S, 100 μM ATP
[13] = ATP at Km, read-out: IC50 WT, Km ATP
[14] = ATP at Km, read-out: IC50 L858R/C797S, Km ATP
[15] = ATP at Km, read-out: IC50 del19/T790M/C797S, Km ATP
[16] = IC50 del19/T790M/C797S, 100 μM ATP

EGFR L858R/T790M/C797S, sequence (P00533 25-1210 T790M/C797S/L858R): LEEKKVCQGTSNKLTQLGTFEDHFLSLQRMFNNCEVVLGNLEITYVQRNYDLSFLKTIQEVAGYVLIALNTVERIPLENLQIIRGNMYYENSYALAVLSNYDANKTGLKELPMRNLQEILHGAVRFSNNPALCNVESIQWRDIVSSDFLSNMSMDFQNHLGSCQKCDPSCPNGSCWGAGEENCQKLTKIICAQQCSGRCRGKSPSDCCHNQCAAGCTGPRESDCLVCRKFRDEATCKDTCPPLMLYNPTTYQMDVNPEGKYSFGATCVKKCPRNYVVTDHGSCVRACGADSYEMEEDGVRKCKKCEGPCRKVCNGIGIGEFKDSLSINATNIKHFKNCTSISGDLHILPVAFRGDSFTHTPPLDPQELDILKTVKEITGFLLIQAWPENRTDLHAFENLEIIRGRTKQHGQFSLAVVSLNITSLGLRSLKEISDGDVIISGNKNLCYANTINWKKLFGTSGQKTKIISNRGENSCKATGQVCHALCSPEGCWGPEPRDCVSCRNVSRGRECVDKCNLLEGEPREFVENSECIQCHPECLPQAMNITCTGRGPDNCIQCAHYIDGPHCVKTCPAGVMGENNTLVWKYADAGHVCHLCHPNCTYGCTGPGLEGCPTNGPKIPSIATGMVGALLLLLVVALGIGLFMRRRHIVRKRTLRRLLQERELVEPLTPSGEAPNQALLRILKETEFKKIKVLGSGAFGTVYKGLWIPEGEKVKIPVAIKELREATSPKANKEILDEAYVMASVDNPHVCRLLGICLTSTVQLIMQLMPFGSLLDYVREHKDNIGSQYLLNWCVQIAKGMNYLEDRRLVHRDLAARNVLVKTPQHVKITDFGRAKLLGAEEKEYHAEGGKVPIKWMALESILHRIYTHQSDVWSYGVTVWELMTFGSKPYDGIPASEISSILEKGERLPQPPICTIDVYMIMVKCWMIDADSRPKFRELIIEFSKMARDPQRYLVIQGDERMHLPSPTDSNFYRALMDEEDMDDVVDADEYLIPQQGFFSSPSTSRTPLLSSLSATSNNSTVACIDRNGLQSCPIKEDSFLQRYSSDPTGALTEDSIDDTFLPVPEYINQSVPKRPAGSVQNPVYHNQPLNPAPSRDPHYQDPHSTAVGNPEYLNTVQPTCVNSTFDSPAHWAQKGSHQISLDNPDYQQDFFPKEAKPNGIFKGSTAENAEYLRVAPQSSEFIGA
EGFR wildtype, sequence (P00533 25-1210): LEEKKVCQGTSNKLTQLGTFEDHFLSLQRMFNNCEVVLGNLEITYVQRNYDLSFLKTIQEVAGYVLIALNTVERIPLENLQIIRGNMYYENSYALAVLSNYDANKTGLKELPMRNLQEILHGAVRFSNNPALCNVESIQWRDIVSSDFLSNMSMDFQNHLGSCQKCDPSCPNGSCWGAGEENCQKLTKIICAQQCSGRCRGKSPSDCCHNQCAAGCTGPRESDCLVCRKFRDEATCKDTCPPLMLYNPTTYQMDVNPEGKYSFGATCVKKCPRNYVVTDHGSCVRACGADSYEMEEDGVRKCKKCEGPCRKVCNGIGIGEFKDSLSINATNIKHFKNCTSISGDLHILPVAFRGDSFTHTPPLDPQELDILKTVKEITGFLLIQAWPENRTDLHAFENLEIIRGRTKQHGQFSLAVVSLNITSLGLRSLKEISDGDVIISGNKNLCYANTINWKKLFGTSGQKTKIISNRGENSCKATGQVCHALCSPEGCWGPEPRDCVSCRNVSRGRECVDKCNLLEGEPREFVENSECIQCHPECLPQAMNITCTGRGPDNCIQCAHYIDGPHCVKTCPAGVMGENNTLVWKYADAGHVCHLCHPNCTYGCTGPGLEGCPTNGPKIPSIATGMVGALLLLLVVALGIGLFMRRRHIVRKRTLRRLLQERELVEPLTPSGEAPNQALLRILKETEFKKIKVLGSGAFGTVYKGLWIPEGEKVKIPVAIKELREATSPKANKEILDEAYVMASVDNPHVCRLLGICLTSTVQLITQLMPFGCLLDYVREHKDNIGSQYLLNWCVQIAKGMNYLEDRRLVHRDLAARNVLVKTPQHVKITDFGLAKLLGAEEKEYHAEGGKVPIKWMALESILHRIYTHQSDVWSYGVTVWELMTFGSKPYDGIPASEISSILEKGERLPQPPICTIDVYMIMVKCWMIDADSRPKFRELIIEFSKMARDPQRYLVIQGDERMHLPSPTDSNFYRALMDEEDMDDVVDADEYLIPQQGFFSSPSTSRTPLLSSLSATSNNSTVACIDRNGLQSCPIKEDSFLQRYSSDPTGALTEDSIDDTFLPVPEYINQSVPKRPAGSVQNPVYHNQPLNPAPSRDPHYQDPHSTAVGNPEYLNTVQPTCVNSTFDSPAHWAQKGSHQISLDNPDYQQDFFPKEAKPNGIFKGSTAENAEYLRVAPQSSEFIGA
EGFR del19/C797S, sequence (P00533 with tags, fused parts or gaps DEL746-750/C797S): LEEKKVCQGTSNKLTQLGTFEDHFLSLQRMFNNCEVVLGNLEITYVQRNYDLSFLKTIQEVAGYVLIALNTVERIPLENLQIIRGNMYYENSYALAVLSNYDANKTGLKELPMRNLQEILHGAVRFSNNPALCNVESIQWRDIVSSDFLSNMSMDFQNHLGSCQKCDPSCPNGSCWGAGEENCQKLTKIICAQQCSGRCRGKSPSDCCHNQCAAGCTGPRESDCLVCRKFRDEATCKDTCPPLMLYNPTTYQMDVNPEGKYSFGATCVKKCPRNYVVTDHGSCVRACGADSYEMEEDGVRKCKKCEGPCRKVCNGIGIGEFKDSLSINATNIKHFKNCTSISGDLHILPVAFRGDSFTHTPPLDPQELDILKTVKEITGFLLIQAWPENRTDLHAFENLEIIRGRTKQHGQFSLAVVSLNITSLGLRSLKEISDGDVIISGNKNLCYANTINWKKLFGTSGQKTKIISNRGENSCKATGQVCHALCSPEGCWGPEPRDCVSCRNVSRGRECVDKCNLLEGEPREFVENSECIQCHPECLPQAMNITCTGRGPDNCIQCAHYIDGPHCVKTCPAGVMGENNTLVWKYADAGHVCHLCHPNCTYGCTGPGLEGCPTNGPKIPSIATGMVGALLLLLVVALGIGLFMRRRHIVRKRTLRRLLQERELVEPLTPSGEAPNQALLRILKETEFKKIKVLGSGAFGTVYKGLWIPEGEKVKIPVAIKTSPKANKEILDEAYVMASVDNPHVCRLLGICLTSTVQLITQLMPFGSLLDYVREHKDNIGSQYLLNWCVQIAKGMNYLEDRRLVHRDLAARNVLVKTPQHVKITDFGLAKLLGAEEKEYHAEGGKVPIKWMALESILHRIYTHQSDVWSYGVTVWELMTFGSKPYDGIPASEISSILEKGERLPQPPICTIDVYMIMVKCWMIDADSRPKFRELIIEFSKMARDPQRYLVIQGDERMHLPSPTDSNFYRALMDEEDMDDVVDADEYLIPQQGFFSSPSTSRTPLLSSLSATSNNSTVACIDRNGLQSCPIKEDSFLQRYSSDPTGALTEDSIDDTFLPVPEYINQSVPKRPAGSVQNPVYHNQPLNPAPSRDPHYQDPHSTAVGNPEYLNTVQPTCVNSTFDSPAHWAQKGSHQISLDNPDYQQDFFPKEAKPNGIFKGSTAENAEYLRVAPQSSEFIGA
EGFR L858R/C797S, sequence (P00533 25-1210 C797S/L858R): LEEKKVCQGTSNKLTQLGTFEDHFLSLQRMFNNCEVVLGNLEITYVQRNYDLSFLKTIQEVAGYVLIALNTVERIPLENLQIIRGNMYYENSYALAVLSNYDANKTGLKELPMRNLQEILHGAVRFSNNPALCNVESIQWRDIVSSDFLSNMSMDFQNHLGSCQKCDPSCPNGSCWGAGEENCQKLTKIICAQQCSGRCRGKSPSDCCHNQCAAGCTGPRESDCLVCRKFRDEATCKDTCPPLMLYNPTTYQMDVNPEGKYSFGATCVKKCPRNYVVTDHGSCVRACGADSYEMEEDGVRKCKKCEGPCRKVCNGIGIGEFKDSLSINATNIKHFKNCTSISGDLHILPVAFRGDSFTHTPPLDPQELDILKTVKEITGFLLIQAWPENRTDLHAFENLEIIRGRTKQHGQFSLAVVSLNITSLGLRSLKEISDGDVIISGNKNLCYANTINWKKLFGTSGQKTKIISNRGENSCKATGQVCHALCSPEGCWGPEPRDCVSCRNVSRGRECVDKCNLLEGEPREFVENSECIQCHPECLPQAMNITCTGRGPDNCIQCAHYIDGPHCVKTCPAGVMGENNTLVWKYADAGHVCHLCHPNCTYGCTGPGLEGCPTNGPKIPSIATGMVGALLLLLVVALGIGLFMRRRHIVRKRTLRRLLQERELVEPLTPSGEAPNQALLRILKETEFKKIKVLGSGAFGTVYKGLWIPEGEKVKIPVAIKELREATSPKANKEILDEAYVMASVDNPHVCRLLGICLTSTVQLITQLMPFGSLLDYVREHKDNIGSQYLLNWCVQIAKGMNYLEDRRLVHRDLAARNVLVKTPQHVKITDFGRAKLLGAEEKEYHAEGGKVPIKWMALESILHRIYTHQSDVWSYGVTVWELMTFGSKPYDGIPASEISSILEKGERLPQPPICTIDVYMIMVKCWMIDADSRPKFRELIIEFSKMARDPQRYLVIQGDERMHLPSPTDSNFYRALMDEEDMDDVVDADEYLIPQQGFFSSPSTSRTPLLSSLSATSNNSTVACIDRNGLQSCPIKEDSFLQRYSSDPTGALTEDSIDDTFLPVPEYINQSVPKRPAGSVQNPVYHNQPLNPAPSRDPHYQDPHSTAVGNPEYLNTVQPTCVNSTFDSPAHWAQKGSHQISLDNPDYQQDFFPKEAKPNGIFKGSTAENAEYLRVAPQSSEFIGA

| IC50 (EGFR L858R/T790M/C797S; [1]) [nM] | IC50 (EGFR wildtype; [2]) [nM] | IC50 (EGFR L858R/C797S; [3]) [nM] | IC50 (EGFR del19/C797S; [4]) [nM] | IC50 (EGFR del19/T790M/C797S; [5]) [nM] | IC50 (EGFR L858R/T790M/C797S; [6]) [nM] | IC50 (EGFR wildtype; [7]) [nM] | IC50 (EGFR L858R/C797S; [8]) [nM] | IC50 (EGFR del19/C797S; [9]) [nM] | IC50 (EGFR del19/T790M/C797S; [10]) [nM] | IC50 (EGFR L858R/T790M/C797S; [11]) [nM] | IC50 (EGFR L858R/T790M/C797S; [12]) [nM] | IC50 (EGFR wildtype; [13]) [nM] | IC50 (EGFR wildtype; IC50 WT, 100 μM ATP) [nM] | IC50 (EGFR L858R/C797S; [14]) [nM] | IC50 (EGFR L858R/C797S; IC50 L858R/C797S, 100 μM ATP) [nM] | IC50 (EGFR del19/C797S; ATP at Km, read-out: IC50 del19/C797S, Km ATP) [nM] | IC50 (EGFR del19/C797S; IC50 del19/C797S, 100 μM ATP) [nM] | IC50 (EGFR del19/T790M/C797S; [15]) [nM] | IC50 (EGFR del19/T790M/C797S; [16]) [nM] | SMILES |
| --- | --- | --- | --- | --- | --- | --- | --- | --- | --- | --- | --- | --- | --- | --- | --- | --- | --- | --- | --- | --- |
| 0.2 | > 10000 | 5.4 | 0.8 | 0.2 | – | – | – | – | – | – | – | – | – | – | – | – | – | – | – | C[C@]1(O)CC[C@@H](Nc2cc(Nc3ccnc(-c4cnn(S(=O)(=O)C5CC5)c4)n3)ncc2-c2ccc(C(F)F)cn2)CC1 [Example 63, (1s,4s)-4-((6′-((2-(1-(Cyclopropylsulfonyl)-1H-pyrazol-4-yl)pyrimidin-4-yl)amino)-5-(difluoromethyl)-[2,3′-bipyridin]-4′-yl)amino)-1-methylcyclohexan-1-ol] |
| – | – | – | – | – | 0.02 | 0.8 | 0.1 | 0.3 | 0.1 | – | – | – | – | – | – | – | – | – | – | CN1CCC(Oc2cnc(-c3cnc(Nc4ccnc(-c5cnn(S(=O)(=O)C6CC6)c5)n4)cc3N[C@H]3CC[C@@H](CO)CC3)cn2)CC1 [Example 146, ((1s,4s)-4-((2-((2-(1-(Cyclopropylsulfonyl)-1H-pyrazol-4-yl)pyrimidin-4-yl)amino)-5-(5-((1-methylpiperidin-4-yl)oxy)pyrazin-2-yl)pyridin-4-yl)amino)cyclohexyl)methanol] |
| – | – | – | – | – | – | – | – | – | – | 0.6 | 1.1 | 8.9 | 5170 | 4.4 | 19.1 | 1.4 | 9.8 | 0.6 | 2.6 | CC(F)(F)c1ccc(-c2cnc(Nc3ccnc(-c4cnn(S(=O)(=O)C5CC5)c4)n3)cc2N[C@H]2CC[C@@](C)(O)CC2)nc1 [Example 292, (1s,4s)-4-((6′-((2-(1-(Cyclopropylsulfonyl)-1H-pyrazol-4-yl)pyrimidin-4-yl)amino)-5-(1,1-difluoroethyl)-[2,3′-bipyridin]-4′-yl)amino)-1-methylcyclohexan-1-ol] |
| 0.1 | 1360 | 2.3 | 0.2 | 0.1 | 0.03 | – | 0.4 | 0.3 | 0.1 | – | – | – | – | – | – | – | – | – | – | C[C@]1(O)CC[C@@H](Nc2cc(Nc3ccnc(-c4cnn(S(=O)(=O)C5CC5)c4)n3)ncc2-c2cccnn2)CC1 [Example 42, (1s,4s)-4-((2-((2-(1-(Cyclopropylsulfonyl)-1H-pyrazol-4-yl)pyrimidin-4-yl)amino)-5-(pyridazin-3-yl)pyridin-4-yl)amino)-1-methylcyclohexan-1-ol] |
| – | – | – | – | – | – | – | – | – | – | 0.3 | 0.5 | 4.9 | 5120 | 2 | 8.4 | – | 4.7 | 0.8 | 0.8 | CC1(O)CCC(Nc2cc(Nc3ccnc(-c4cnn(S(=O)(=O)C5CC5)c4)n3)ncc2-c2ccc(C(O)C(F)(F)F)cn2)CC1 (stereo not shown) [Example 226, (1s,4s)-4-((6′-((2-(1-(Cyclopropylsulfonyl)-1H-pyrazol-4-yl)pyrimidin-4-yl)amino)-5-(2,2,2-trifluoro-1-hydroxyethyl)-[2,3′-bipyridin]-4′-yl)amino)-1-methylcyclohexan-1-ol] |
| 0.2 | > 10000 | 12.4 | – | 0.2 | 0.1 | 3 | 0.6 | 0.5 | 0.4 | – | – | – | – | – | – | – | – | – | – | C[C@]1(O)CC[C@@H](Nc2cc(Nc3ccnc(-c4cnn(S(=O)(=O)C5CC5)c4)n3)ncc2-c2ccc(C#N)cn2)CC1 [Example 7, 6′-((2-(1-(Cyclopropylsulfonyl)-1H-pyrazol-4-yl)pyrimidin-4-yl)amino)-4′-(((1s,4s)-4-hydroxy-4-methylcyclohexyl)amino)-[2,3′-bipyridine]-5-carbonitrile] |
| – | – | – | – | – | 0.3 | 15.1 | 1 | 2 | 0.3 | – | – | – | – | – | – | – | – | – | – | C[C@]1(O)CC[C@@H](Nc2cc(Nc3ccnc(-c4cnn(S(=O)(=O)C5CC5)c4)n3)ncc2-c2cnc(OC3CCOCC3)cn2)CC1 [Example 148, (1s,4s)-4-((2-((2-(1-(Cyclopropylsulfonyl)-1H-pyrazol-4-yl)pyrimidin-4-yl)amino)-5-(5-((tetrahydro-2H-pyran-4-yl)oxy)pyrazin-2-yl)pyridin-4-yl)amino)-1-methylcyclohexan-1-ol] |
| 0.4 | > 10000 | 31.1 | 2.2 | 4.9 | 0.1 | 15.3 | – | – | 0.4 | – | – | – | – | – | – | – | – | – | – | CC(C)(O)c1ccc(-c2cnc(Nc3ccnc(-c4cnn(S(=O)(=O)C5CC5)c4)n3)cc2N[C@H]2CC[C@@H](C(C)(C)O)CC2)nn1 [Example 88, 2-(6-(6-((2-(1-(Cyclopropylsulfonyl)-1H-pyrazol-4-yl)pyrimidin-4-yl)amino)-4-(((1s,4s)-4-(2-hydroxypropan-2-yl)cyclohexyl)amino)pyridin-3-yl)pyridazin-3-yl)propan-2-ol] |
| 15.2 | > 10000 | 313 | 33.2 | 15.2 | 6.6 | 143 | 68.9 | 34 | 8.7 | – | – | – | – | – | – | – | – | – | – | C[C@]1(O)CC[C@@H](Nc2cc(Nc3ccnc(-c4cnn(S(=O)(=O)C5CC5)c4)n3)ncc2-c2cnc(N3CCC(F)(F)CC3)cn2)CC1 [Example 75, (1s,4s)-4-((2-((2-(1-(Cyclopropylsulfonyl)-1H-pyrazol-4-yl)pyrimidin-4-yl)amino)-5-(5-(4,4-difluoropiperidin-1-yl)pyrazin-2-yl)pyridin-4-yl)amino)-1-methylcyclohexan-1-ol] |
| 2.4 | > 10000 | 122 | 8.8 | 1.4 | – | 169 | – | 5.9 | – | – | – | – | – | – | – | – | – | – | – | COc1cnc(-c2cnc(Nc3ccnc(-c4cnn(S(=O)(=O)C5CC5)c4)n3)cc2N[C@H]2CC[C@@](C)(O)CC2)cn1 [Example 56, (1s,4s)-4-((2-((2-(1-(Cyclopropylsulfonyl)-1H-pyrazol-4-yl)pyrimidin-4-yl)amino)-5-(5-methoxypyrazin-2-yl)pyridin-4-yl)amino)-1-methylcyclohexan-1-ol] |
| 0.4 | 968 | – | 0.7 | 0.2 | 0.1 | 4.3 | 0.1 | 0.5 | 0.2 | – | – | – | – | – | – | – | – | – | – | CC(C)(O)c1cnc(-c2cnc(Nc3ccnc(-c4cnn(S(=O)(=O)C5CC5)c4)n3)cc2N[C@H]2CC[C@@H](C(C)(C)O)CC2)cn1 [Example 120, 2-(5-(6-((2-(1-(Cyclopropylsulfonyl)-1H-pyrazol-4-yl)pyrimidin-4-yl)amino)-4-(((1s,4s)-4-(2-hydroxypropan-2-yl)cyclohexyl)amino)pyridin-3-yl)pyrazin-2-yl)propan-2-ol] |
| – | – | – | – | – | 0.1 | 12.4 | 0.8 | 1.2 | 0.03 | – | – | – | – | – | – | – | – | – | – | CN1CCC(Oc2ccc(-c3cnc(Nc4ccnc(-c5cnn(CC(F)F)c5)n4)cc3NC3CCCC(F)C3)nc2)CC1 (stereo not shown) [Example 141, N^6′-(2-(1-(2,2-Difluoroethyl)-1H-pyrazol-4-yl)pyrimidin-4-yl)-N^4′-(3-fluorocyclohexyl)-5-((1-methylpiperidin-4-yl)oxy)-[2,3′-bipyridine]-4′,6′-diamine] |
